Source: patent publication US20240245711A1, “A 19-NOR C3,3-DISUBSTITUTED C21-N-PYRAZOLYL STEROID FOR THE TREATMENT OF MAJOR DEPRESSIVE DISORDER” (Sage Therapeutics, Inc., priority 2021, published 2024)

Tested on: adult subjects with Major Depressive Disorder
Test: Phase 3 open-label 1-year study: HAM-D total score, response and remission
Type: in vivo, human
Source text: Secondary Objective: To assess the need for re-treatment with Compound (1) following initial treatment in adults with MDD currently experiencing an MDE over a 1-year period, and to assess the response of initial treatment and re-treatment(s) with Compound (1) following an initial 2-week treatment period in adults with MDD currently experiencing an MDE over a 1-year period.
Secondary Endpoints: The need for re-treatment with Compound (1) as assessed by: time to first re-treatment (Kaplan-Meier curves), number of subjects achieving the requirements for re-treatment, number of re-treatment cycles for each subject, the response of initial treatment and/or re-treatment as assessed by: change from baseline in the 17-item Hamilton Rating Scale for Depression (HAM-D) total score at the end of each 14-day treatment (initial and/or re-treatment) period, HAM-D response at the end of each 14-day treatment (initial and/or re-treatment) period, defined as a ≥50% reduction in HAM-D score from baseline, HAM-D remission at the end of each 14-day treatment (initial and/or re-treatment) period, defined as HAM-D total score≤7, Clinical Global Impression-Improvement (CGI-I) response, defined as “much improved” or “very much improved”, at the end of each 14-day treatment (initial and/or re-treatment) period, change from baseline in Clinical Global Impression-Severity (CGI-S) score at the end of each 14-day treatment (initial and/or re-treatment) period.
Study Population: Subjects were 18-75 years old, diagnosed with major depressive disorder (MDD) with a MADRS total score of ≥28 and a HAM-D total score of ≥20 at Screening and Day 1 (prior to dosing).
Treatment Groups: The 30 mg and 50 mg dose groups were separated by time of enrollment. The study is comprised of two cohorts: one with Compound (1) 30 mg as a starting dose (30 mg Cohort: n=725), an initial cohort with Compound (1) 50 mg as a starting dose (50 mg Cohort: n=199). A patient receiving Compound (1) 30 mg could be dose reduced to 20 mg and patients receiving Compound (1) 50 mg could be dose reduced to 40 mg (based on tolerability). In all cohorts, Compound (1) is self-administered by patients as an oral therapy once nightly with food for 14 days.
Eligible subjects were given Compound (1)—to be taken at home in the evening with meal.
The cohorts pertaining to the different doses that the subjects received were defined as following: • 50 mg cohort: This cohort includes subjects who have initiated treatment with 50 mg and received re-treatment with 50 mg only. • 30 mg cohort: This cohort includes subjects who have initiated treatment with 30 mg regardless of the dose they have received in re-treatments. • Low dose cohort: This cohort includes subjects who have initiated treatment with 30 mg and received re-treatment with 30 mg only. • Dose switch cohort: This cohort includes subjects who have received initial treatment with 30 mg and at least one subsequent re-treatment with 50 mg. • Study Period X: starts on the date of the first dose of Compound (1) in cycle X and goes up to one day prior to the first dose of the next cycle. In some embodiments, X is any number from 1 to 5. • Treatment Period X: starts on the date of the first dose of Compound (1) in cycle X and goes up to one day after the last dose in cycle X. In some embodiments, X is any number from 1 to 5. • Treatment Cycle X: starts on the date of the first dose of Compound (1) in cycle X and goes up to 14 days after the last dose in cycle X. The treatment cycles may be denoted as C1-C5. • Observation period X: starts the day after Treatment Cycle X ends and goes up to one day prior to the start of next treatment cycle. In some embodiments, X is any number from 1 to 5.
Analysis Sets: The safety set was defined as all subjects who were administered study drug. The period-specific safety set includes subjects in the safety set who were administered study drug in the corresponding treatment cycle. […]

[1] = Day 15 of first treatment cycle, overall study population
[2] = Dose Switch Cohort (FAS), first dose in cycle 30 mg, Cycle 2, Day 15
[3] = Dose Switch Cohort (FAS), first dose in cycle 30 mg, Cycle 3, Day 15
[4] = Dose Switch Cohort (FAS), first dose in cycle 30 mg, Cycle 4, Day 15
[5] = Low Dose Cohort (FAS), of Non-responders at D15 in C3 (N = 33)
[6] = Low Dose Cohort (FAS), of Non-responders at D15 in C4 (N = 18)
[7] = Low Dose Cohort (FAS), of Non-responders at D15 in C5 (N = 7)
[8] = Low Dose Cohort (FAS), subjects dosed in Cycle 2 (199), Cycle 1, Day 15
[9] = Low Dose Cohort (FAS), subjects dosed in Cycle 2 (199), Cycle 1, Day 28
[10] = Low Dose Cohort (FAS), subjects dosed in Cycle 2 (199), Cycle 2, Day 15
[11] = Low Dose Cohort (FAS), subjects dosed in Cycle 2 (199), Cycle 2, Day 28
[12] = Low Dose Cohort (FAS), subjects dosed in Cycle 3 (83), Cycle 1, Day 15
[13] = Low Dose Cohort (FAS), subjects dosed in Cycle 3 (83), Cycle 2, Day 15
[14] = Low Dose Cohort (FAS), subjects dosed in Cycle 3 (83), Cycle 2, Day 28
[15] = Low Dose Cohort (FAS), subjects dosed in Cycle 3 (83), Cycle 3, Day 15
[16] = Low Dose Cohort (FAS), subjects dosed in Cycle 3 (83), Cycle 3, Day 28

C[C@@]1(O)CC[C@H]2[C@H](CC[C@@H]3[C@@H]2CC[C@]2(C)[C@@H](C(=O)Cn4cc(C#N)cn4)CC[C@@H]32)C1 [Compound (1), 1-(2-((3R,5R,8R,9R,10S,13S,14S,17S)-3-hydroxy-3,13-dimethylhexadecahydro-1H-cyclopenta[a]phenanthren-17-yl)-2-oxoethyl)-1H-pyrazole-4-carbonitrile]
Withdrawn in Treatment Cycle 1: Exit for non-response, n (%) (50 mg Cohort (n = 199)): 31 (15.6%) | Subjects achieving remission (HAM-D less than or equal to 7) (50 mg Cohort, Day 15 Treatment Cycle 1, Example 4, 80 subjects of 199): 40.2% | Subjects achieving response (at least 50% reduction in HAM-D from baseline) (50 mg Cohort, Day 15 Treatment Cycle 1, Example 4, about 149 subjects of 199): 74.9% | HAMD-17 remission rate [1]: 40.8% | HAMD-17 response rate [1]: 75.0% | Mean (SD) CFB in HAMD-17 (Day 15 of first treatment cycle, overall study population (30 mg and 50 mg Cohorts)): −15.4 (6.9) | Responders at D15 in C1 who did not discontinue in C1 (FAS), % of subjects dosed in C1 (Dose Switch Cohort (80 dosed)): 80 (100%) | HAM-D Total Score, Mean Change from Period-Specific Baseline [2]: −15.5 | HAM-D Total Score, Mean Percent Change from Period-Specific Baseline [2]: −59.1 | HAM-D Total Score, Mean Change from Period-Specific Baseline [3]: −15.8 | HAM-D Total Score, Mean Percent Change from Period-Specific Baseline [3]: −60.0 | HAM-D Total Score, Mean Change from Period-Specific Baseline [4]: −14.8 | HAM-D Total Score, Mean Percent Change from Period-Specific Baseline [4]: −60.0 | Responders at D15 in C1 who did not discontinue in C1 (FAS), % of subjects dosed in C1 (Low Dose Cohort (645 dosed)): 409 (63.4%) | HAM-D Non-responder rate at D15 (of subjects dosed in cycle) (Low Dose Cohort (FAS), C2 (N = 70 of 199)): (N = 70, 35.2%) | HAM-D Non-responder rate at D15 (of subjects dosed in cycle) (Low Dose Cohort (FAS), C3 (N = 33 of 83)): (N = 33, 39.8%) | HAM-D Non-responder rate at D15 (of subjects dosed in cycle) (Low Dose Cohort (FAS), C4 (N = 18 of 43)): (N = 18, 41.9%) | HAM-D Non-responder rate at D15 (of subjects dosed in cycle) (Low Dose Cohort (FAS), C5 (N = 7 of 20)): (N = 7, 35%) | Status in C2: Non-responder [5]: (57.6%) | Status in C2: Responder [5]: (42.4%) | Status in C2: Non-responder [6]: (55.6%) | Status in C2: Responder [6]: (44.4%) | Status in C3: Non-responder [6]: 9 (50.0%) | Status in C3: Responder [6]: (50.0%) | Status in C2: Non-responder [7]: (85.7%) | Status in C2: Responder [7]: (14.3%) | Status in C3: Non-responder [7]: 3 (42.9%) | Status in C3: Responder [7]: (57.1%) | Status in C4: Non-responder [7]: 5 (71.4%) | Status in C4: Responder [7]: 1 (14.4%) | HAM-D Total Score, Mean Change from Period-Specific Baseline [8]: −17.4 | HAM-D Total Score, Mean Percent Change from Period-Specific Baseline [8]: −70.0 | HAM-D Total Score, Mean Change from Period-Specific Baseline [9]: −13.8 | HAM-D Total Score, Mean Percent Change from Period-Specific Baseline [9]: −55.2 | HAM-D Total Score, Mean Change from Period-Specific Baseline [10]: −12.3 | HAM-D Total Score, Mean Percent Change from Period-Specific Baseline [10]: −52.6 | HAM-D Total Score, Mean Change from Period-Specific Baseline [11]: −11.5 | HAM-D Total Score, Mean Percent Change from Period-Specific Baseline [11]: −49.1 | HAM-D Total Score, Mean Change from Period-Specific Baseline [12]: −17.2 | HAM-D Total Score, Mean Percent Change from Period-Specific Baseline [12]: −68.8 | HAM-D Total Score, Mean Change from Period-Specific Baseline (Low Dose Cohort (FAS), subjects dosed in Cycle 3 (83), Cycle 1, Day 28): 83, −12.7, — | HAM-D Total Score, Mean Change from Period-Specific Baseline [13]: −12.7 | HAM-D Total Score, Mean Percent Change from Period-Specific Baseline [13]: −52.9 | HAM-D Total Score, Mean Change from Period-Specific Baseline [14]: −11.2 | HAM-D Total Score, Mean Percent Change from Period-Specific Baseline [14]: −46.5 | HAM-D Total Score, Mean Change from Period-Specific Baseline [15]: −12.5 | HAM-D Total Score, Mean Percent Change from Period-Specific Baseline [15]: −52.4 | HAM-D Total Score, Mean Change from Period-Specific Baseline [16]: −11.9 | HAM-D Total Score, Mean Percent Change from Period-Specific Baseline [16]: −49.8 | HAM-D Total Score, Mean Change from Period-Specific Baseline (Low Dose Cohort (FAS), subjects dosed in Cycle 4 (43), Cycle 1, Day 15): −17.0
